Source: patent US20240269299A1, “POLYETHYLENE GLYCOL-DRUG CONJUGATE AND USE THEREOF” (CHONGQING UPGRA BIOTECHNOLOGY CO. LTD., priority 2021, published 2024)

Test system: choroidal neovascularization (CNV)
Assay: Laser modeling of choroidal neovascularization (CNV) in mice
Assay type: in vivo, C57BL/6J suckling mice
Conditions: 1 μL injected into vitreous space one week after photocoagulation
Description: Experimental animals: C57BL/6J suckling mice, where the mice were all female and subjected to laser modeling three days after birth.
A mixed solution of 20% V/V PEG300, 20% V/V anhydrous ethanol and 60% V/V normal saline was used as a solvent for compound 39-205 to prepare a 20 mg/mL solution for use in mice No. 6 and No. 7, respectively. A saline solution of aflibercept was used as a positive control for mouse No. 5.
After the mice were anesthetized, a semiconductor laser was used to perform retinal photocoagulation around optic discs under a retinoscope. An irradiation site was between blood vessels that were one optic disc diameter away from the optic disc. The generation of bubbles after photocoagulation was an indicator of breaking Bruch's membrane. The laser modeling conditions for mice No. 6 and No. 7 were 350 mw and 200 ms, and the laser modeling conditions for mouse No. 5 were 300 mw, 260 ms, and the photocoagulation time was 1 s. One week after photocoagulation, medication treatments started for the mice. The administration method was: 1 μL of each of the 20 mg/mL solution of compound 39-205 prepared above and a normal saline solution of aflibercept was injected into vitreous space.

For aflibercept, the “area of the laser spot after administration” value (compound 39-205 as 20 mg/mL solution, aflibercept in normal saline, FIG. 1 to FIG. 4) was “did not significantly reduce” and the “fundus angiography after administration” value (mouse No. 5, FIG. 1) was “not significantly improved”.
